# PubChem BioAssay (NCI)
#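 Five concentrations, 48 hours, 96-well plates. The concentration for full growth arrest is given as TGI.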
# Legend:
# Experiment in all cases: NCI tumour cell line growth inhibition, 48 h
# [1] = tested on: SR leukemia
# [2] = tested on: HT29 colon
# [3] = tested on: EKVX NSCLC
# [4] = tested on: K-562 leukemia
# [5] = tested on: UO-31 renal
# [6] = tested on: DMS 114 small cell lung
# [7] = tested on: OVCAR-3 ovarian
# [8] = tested on: CAKI-1 renal
# [9] = tested on: KM12 colon
# [10] = tested on: UACC-257 melanoma
# [11] = tested on: SNB-19 CNS
# [12] = tested on: CCRF-CEM leukemia
# [13] = tested on: KM20L2 colon
# [14] = tested on: IGROV1 ovarian
# [15] = tested on: SK-OV-3 ovarian
# [16] = tested on: SW-620 colon
# [17] = tested on: M19-MEL melanoma
# [18] = tested on: SF-268 CNS
# [19] = tested on: A498 renal
# [20] = tested on: A549 NSCLC
# [21] = tested on: MALME-3M melanoma
# [22] = tested on: M14 melanoma
# [23] = tested on: HOP-92 NSCLC
# [24] = tested on: HOP-62 NSCLC
# [25] = tested on: 786-0 renal
# [26] = tested on: OVCAR-8 ovarian
# [27] = tested on: SNB-78 CNS
# [28] = tested on: MOLT-4 leukemia
# [29] = tested on: SN12C renal
# [30] = tested on: NCI-H23 lung
# [31] = tested on: RXF 393 renal
# [32] = tested on: DMS 273 small cell lung
# [33] = tested on: SF-539 CNS
# [34] = tested on: HL-60(TB) leukemia
# [35] = tested on: SF-295 CNS
# [36] = tested on: ACHN renal
# [37] = tested on: LXFL 529 NSCLC
# [38] = tested on: UACC-62 melanoma
# [39] = tested on: NCI-H460 lung
# [40] = tested on: XF 498 CNS
# [41] = tested on: OVCAR-5 ovarian
# [42] = tested on: RPMI-8226 leukemia
# [43] = tested on: COLO 205 colon
# [44] = tested on: U251 CNS
# [45] = tested on: NCI-H226 lung
# [46] = tested on: SK-MEL-28 melanoma
# [47] = tested on: HCT-15 colon
# [48] = tested on: SK-MEL-2 melanoma
# [49] = tested on: NCI-H522 lung
# [50] = tested on: TK-10 renal
# [51] = tested on: OVCAR-4 ovarian
# [52] = tested on: HCT-116 colon
# [53] = tested on: LOX IMVI melanoma
smiles,measurement,setting,value
CC12C=C[C@]3(CC[C@@H]4[C@@](C)(CO)CCC[C@]4(C)C3CC1)C2 (stereo partly drawn),TGI,[1],37 µM
same,TGI,[2],32.2 µM
same,TGI,[3],> 55.8 µM
same,TGI,[4],37.5 µM
same,TGI,[5],32.2 µM
same,TGI,[6],31.7 µM
same,TGI,[7],33.2 µM
same,TGI,[8],26.2 µM
same,TGI,[9],> 64 µM
same,TGI,[10],33.6 µM
same,TGI,[11],36.2 µM
same,TGI,[12],46.9 µM
same,TGI,[13],1.68 µM
same,TGI,[14],33 µM
same,TGI,[15],33.2 µM
same,TGI,[16],33.8 µM
same,TGI,[17],35.7 µM
same,TGI,[18],35.4 µM
same,TGI,[19],37.7 µM
same,TGI,[20],36.7 µM
same,TGI,[21],47.6 µM
same,TGI,[22],29.9 µM
same,TGI,[23],> 65 µM
same,TGI,[24],19.9 µM
same,TGI,[25],30 µM
same,TGI,[26],41.2 µM
same,TGI,[27],36.7 µM
same,TGI,[28],> 60.4 µM
same,TGI,[29],34.4 µM
same,TGI,[30],33.4 µM
same,TGI,[31],27.3 µM
same,TGI,[32],29.6 µM
same,TGI,[33],30.5 µM
same,TGI,[34],36.8 µM
same,TGI,[35],34.1 µM
same,TGI,[36],32 µM
same,TGI,[37],30.8 µM
same,TGI,[38],29.3 µM
same,TGI,[39],40.1 µM
same,TGI,[40],35.3 µM
same,TGI,[41],10.6 µM
same,TGI,[42],41.6 µM
same,TGI,[43],30.6 µM
same,TGI,[44],30.9 µM
same,TGI,[45],14.4 µM
same,TGI,[46],35.6 µM
same,TGI,[47],31.1 µM
same,TGI,[48],43.2 µM
same,TGI,[49],16.6 µM
same,TGI,[50],34.7 µM
same,TGI,[51],26.7 µM
same,TGI,[52],31.9 µM
same,TGI,[53],30.7 µM
